Measured values published in patent publication US20050084471A1, “Concentrated antimicrobial compositions and methods” (3M Innovative Properties Company, priority 2003, published 2005).

Key:
[1] = tested on: E. coli 0157:H7 (ATCC# 700728); test: Dip treatment of inoculated beef adipose, log reduction; type: cell-based; conditions: formulations diluted to 1% w/w + 2% lactic acid; for Log Reduction, 60 min at 5° C. / Log Reduction, 24 hours at 5° C.: 5 min treatment
Experimental: Bacteria were grown in the same procedure described in Example 3. The bacteria strain was non-toxic E. coli 0157: H7 (ATCC# 700728).
After inoculation, the meat pieces were placed in a cooler at 5° C. for 30+/−5 minutes to allow attachment of the organisms.
A 11.4 cm^2 coring device was used to cut surface tissue excisions no thicker than 3 mm from the inoculated samples. The stainless steel coring device was disinfected prior to each run to prevent cross-contamination among the samples. Each circular tissue excision was placed in a filter stomacher bag with 15 ml of letheen diluent and stomached for 1 minuted prior to plating.
A 11.4 cm^2 coring device was used to cut surface tissue excisions no thicker than 3 mm from the inoculated samples. The stainless steel coring device was disinfected prior to each run to prevent cross-contamination among the meat samples.
The solution was shaken well until a milky emulsion formed. The emulsion solutions were used immediately after being made.
The circles were removed immediately and the excess solution was allowed to drip from the circle for 5 sec.
The circles were placed in stomacher bags. Two of them were placed into the refrigerator and the third was tested by adding 15 ml of Letheen diluent to the third stomacher bag. This bag was stomached for 1 minute prior to plating. Duplicate samples were plated from the undiluted sample in the stomacher bag. Serial ten-fold dilutions were made and plated on a [sequence] EB plate from each dilution. After incubation the plates were counted as recommended on the package insert. After 1 h refrigeration, one of the refrigerated stomacher bags was removed and the above steps repeated for the 1 h test circle. After 24 h refrigeration, the last of the stomacher bags was removed and the above steps repeated for the 24 h test circle.
Plates were read after incubation and log reductions determined as indicated in Example 3.

[2] = tested on: Staph. aureus, ATCC 25923; test: In vitro kill test of diluted formulations at 5° C., log reduction; type: cell-based, Staphylococcus aureus

CC(O)C(=O)O (stereo not drawn) [2% Lactic Acid, Lactic Acid]
Log Reduction, 60 min at 5° C. ([1]; solution at 5° C.): 1.37 log
Log Reduction, 24 hours at 5° C. ([1]; solution at 5° C.): 2.26 log
Log Reduction, 60 min at 5° C. ([1]; solution at 23° C.): 1.74 log
Log Reduction, 60 min at 5° C. ([1]; solution at 50° C.): 2.43 log
Log Reduction, 24 hours at 5° C. ([1]; solution at 50° C.): 2.54 log
Log Reduction, 5 min dip ([1]; solution at 5° C.): 0.51 log
Log Reduction, 5 min dip ([1]; solution at 23° C.): 0.87 log
Log Reduction, 5 min dip ([1]; solution at 50° C.): 1.72 log
Log Reduction [2]: <2.72 log
